# Experimental data published in patent publication US20210252047A1, “USE OF HALOGEN COMPOUNDS FOR THE TREATMENT AND PREVENTION OF TISSUE INJURY AND POST-INTENSIVE CARE SYNDROME” (Faraday Pharmaceuticals, Inc., priority 2018, published 2021).
# Experiments:
# [1] = tested on: mice subjected to bilateral hind limb ischemia; test: Hind limb ischemia survival, Study B (2.5 hours ischemia, NaI in drinking water); format: in vivo, C57Bl/6 mice
# Method: (§1) A bilateral hind-limb ischemia model was used to induce systemic inflammation. Male C57Bl/6 mice (7-10 weeks old) were subjected to 2 hours of bilateral hind limb ischemia followed by 3 hours of reperfusion. Ischemia was induced by application of latex o-rings above the greater trochanter using a McGivney Hemorrhoidal ligator. After 3 hours of reperfusion, the plasma was analyzed for levels of creatine kinase (CK), or other markers of organ injury: blood urea nitrogen (BUN), alanine aminotransferase (ALT), and aspartate aminotransferase (AST).
# The model used to evaluate survival was similar to that previously described for Study A; however, the time of ischemia was increased to 2.5 hours. The time from reperfusion to death was monitored for the next 24 hours.
# The drinking water of the mice was supplemented with 84 μM NaI and the mice were allowed ad libitium access (p.o.) to this water for >5 days prior to hind limb ischemia.
# [2] = tested on: mice subjected to bilateral hind limb ischemia; test: Hind limb ischemia survival, Study C (3 hours ischemia, i.v. bolus); format: in vivo, C57Bl/6 mice
# Method: as §1
# The model used to evaluate survival was similar to that previously described for Study A; however, the time of ischemia was increased to 3 hours. The time from reperfusion to death was monitored for the next 2 months.
# A 1 mg/kg bolus of sodium iodide was administered intravenously (i.v.) by the retro orbital (r.o.) route 5 minutes prior to reperfusion of the hind limbs.
# [3] = tested on: mice subject to bilateral hind limb ischemia (HLI); test: Hind limb ischemia (HLI) cytokine levels in muscle and plasma, Example 3; format: in vivo, C56Bl/6 mice; conditions: 24 hours after reperfusion
# Method: A mouse model of hind limb ischemia was utilized to induce intramuscular and systemic inflammation. Male C56Bl/6 mice˜7-10 weeks old were subject to bilateral hind limb ischemia (HLI) by placing an O-ring on both hind limbs for 2.5 hours. Five minutes prior to reperfusion an intravenous bolus of sodium iodide (NaI; FDY-5301) at a concentration of 1 mg/kg was delivered. Vehicle treated animals received an i.v. bolus of saline. After i.v. delivery, at the 2.5 hour mark, the O-rings were cut off and removed to allow for tissue reperfusion. The mice were sacrificed 24 hours following reperfusion. Upon sacrifice, whole blood was removed (plasma was then separated and frozen at −80° C.), the gastronemius muscle was removed and snap frozen in liquid nitrogen and then stored at −80° C. The cytokines were evaluated on a MAGPIX® instrument (Luminex Corp) using a custom multiplex assay kit from MilliporeSigma (MCYTOMAG-70K-09, containing: INF-γ, IL-18, IL-2, IL-6, IL-10, KC, LIX, MIP-2 & TNF-α.
# [4] = tested on: mice subjected to bilateral hind limb ischemia; test: Bilateral hind-limb ischemia model of systemic inflammation, Study A (2 hours ischemia, 3 hours reperfusion); format: in vivo, C57Bl/6 mice; conditions: after 3 hours of reperfusion
# Method: as §1
# A 1, 3, 10, or 20 mg/kg bolus of sodium iodide was administered intravenously (i.v.) by the retro orbital (r.o.) route 5 minutes prior to reperfusion of the hind limbs.
# [5] = tested on: mice subjected to hindlimb ischemia reperfusion injury; test: Hindlimb ischemia reperfusion injury (2 hours ischemia, 3 hours reperfusion), Example 1; format: in vivo, C57BL/6 mice
# Method: Anesthetized adult male C57BL/6 mice were subjected to hindlimb ischemia reperfusion injury (bilateral leg tourniquets for 2 hours (ischemia) followed by 3 hours of reperfusion after tourniquet removal). To determine whether exogenous iodide could reduce damage to heart and lung tissue caused by the ischemia reperfusion injury, various doses of iodide (0 mg/kg, 1 mg/kg, 10 mg/kg or 20 mg/kg) were administered intravenously (i.v.) by the retro orbital (r.o.) to the animals 5 minutes prior to reperfusion of the hind limb.
# The animals were then sacrificed and blood (plasma) and lung and GC muscle samples obtained. The blood (plasma) samples were assayed to determine the concentrations of creatine kinase and cardiac troponin present in each. In addition, the amount of edema present in the lung and GC muscle was determined as wet weight/dry weight.
# [6] = 1 mg/kg i.v. bolus 5 minutes prior to reperfusion, 2.5 h ischemia, p<0.05, FIG. 7
# [7] = i.v. administration 5 minutes prior to reperfusion, FIG. 2
smiles,measurement,setting,value
[I-].[Na+] [sodium iodide],animals alive at 24 hours,"[1]; 84 μM in drinking water (p.o.) >5 days prior to ischemia, vehicle 50%",90%
same,survival compared to vehicle,"[1]; 84 μM in drinking water ad libitum (p.o.) >5 days prior to ischemia, monitored 24 hours, FIG. 5",significantly increased
same,survival compared to vehicle administration,[2]; 1 mg/kg i.v. bolus 5 minutes prior to reperfusion,increased
same,animals alive after 72 hours,"[2]; 1 mg/kg i.v. bolus 5 minutes prior to reperfusion, vehicle 0%, FIG. 6A",20%
same,further survival of the animals alive after 72 hours (study ended at this point),"[2]; 1 mg/kg i.v. bolus, FIG. 6B",≥ 2 months
same,plasma IL-6,"[3]; 1 mg/kg i.v. bolus 5 minutes prior to reperfusion, 2.5 h ischemia, FIG. 8",significant reduction
same,IL-6 in muscle tissue,[3]; [6],significant reduction
same,IL-10 in muscle tissue,[3]; [6],significant reduction
same,KC in muscle tissue,[3]; [6],significant reduction
same,MIP-2 in muscle tissue,[3]; [6],significant reduction
same,"inflammation, heat map of all cytokines assessed in muscle or plasma","[3]; 1 mg/kg i.v. bolus, FIGS. 9 and 10",overall reduction
same,cytokine levels in plasma,[3]; FIG. 8,significantly reduced
same,"cytokine levels in muscle tissue (IL-6, IL-10, CXCL1 or KC, MIP-2)",[3]; FIGS. 7A-7D,significantly reduced
same,plasma CK levels compared to vehicle,"[4]; 1 mg/kg i.v. bolus 5 minutes prior to reperfusion, FIG. 3",significantly reduced
same,plasma level of blood urea nitrogen (BUN),"[4]; 1, 3, 10 or 20 mg/kg i.v. bolus 5 minutes prior to reperfusion, FIG. 4A",reduced
same,plasma level of alanine aminotransferase (ALT),"[4]; 1, 3, 10 or 20 mg/kg i.v. bolus 5 minutes prior to reperfusion, FIG. 4B",reduced
same,plasma level of aspartate aminotransferase (AST),"[4]; 1, 3, 10 or 20 mg/kg i.v. bolus 5 minutes prior to reperfusion, FIG. 4C",reduced
same,plasma CK (creatine kinase) levels compared to vehicle,"[5]; 1 mg/kg, 10 mg/kg or 20 mg/kg i.v. (retro orbital) 5 minutes prior to reperfusion, 2 h ischemia, 3 h reperfusion, FIG. 1A",significantly reduced
same,level of cardiac troponin,"[5]; 10 mg/kg i.v. 5 minutes prior to reperfusion, plasma, 2 h ischemia, 3 h reperfusion, FIG. 1B",significantly reduced
same,"muscle edema (gastrocnemius), wet weight/dry weight",[5]; [7],reduced
same,"pulmonary edema (lung), wet weight/dry weight",[5]; [7],reduced
